Test results taken from ChEMBL document CHEMBL2331297, “Potent and selective tariquidar bioisosters as potential PET radiotracers for imaging P-gp” (Bioorg Med Chem Lett, 2013).

Columns and labels:
[1] = target: Multidrug resistance-associated protein 1 (Homo sapiens, UniProt P33527); assay: Activity at MRP1 (unknown origin) expressed in MDCK cells using calcein AM as substrate incubated for 30 mins prior to substrate addition measured after 30 mins by fluorometric analysis; format: cell-based
MDR1 (ABCB1, P-gp) [2] = target: T1, MDR1 (ABCB1, P-gp) (Homo sapiens, UniProt P08183); assay: Activity at MDR1 (unknown origin) expressed in MDCK cells assessed as ATPase activity at 50 uM after 2 hrs by ATPlite assay; format: cell-based; settings: MDCK cells expressing MDR1, read-out: Activity
[3] = target: T2, Broad substrate specificity ATP-binding cassette transporter ABCG2 (Homo sapiens, UniProt Q9UNQ0); assay: Activity at BCRP (unknown origin) expressed in MDCK cells using […] as substrate incubated for 30 mins prior to substrate addition measured after 30 mins by fluorometric analysis; format: cell-based
T2 sequence (Q9UNQ0 whole entry): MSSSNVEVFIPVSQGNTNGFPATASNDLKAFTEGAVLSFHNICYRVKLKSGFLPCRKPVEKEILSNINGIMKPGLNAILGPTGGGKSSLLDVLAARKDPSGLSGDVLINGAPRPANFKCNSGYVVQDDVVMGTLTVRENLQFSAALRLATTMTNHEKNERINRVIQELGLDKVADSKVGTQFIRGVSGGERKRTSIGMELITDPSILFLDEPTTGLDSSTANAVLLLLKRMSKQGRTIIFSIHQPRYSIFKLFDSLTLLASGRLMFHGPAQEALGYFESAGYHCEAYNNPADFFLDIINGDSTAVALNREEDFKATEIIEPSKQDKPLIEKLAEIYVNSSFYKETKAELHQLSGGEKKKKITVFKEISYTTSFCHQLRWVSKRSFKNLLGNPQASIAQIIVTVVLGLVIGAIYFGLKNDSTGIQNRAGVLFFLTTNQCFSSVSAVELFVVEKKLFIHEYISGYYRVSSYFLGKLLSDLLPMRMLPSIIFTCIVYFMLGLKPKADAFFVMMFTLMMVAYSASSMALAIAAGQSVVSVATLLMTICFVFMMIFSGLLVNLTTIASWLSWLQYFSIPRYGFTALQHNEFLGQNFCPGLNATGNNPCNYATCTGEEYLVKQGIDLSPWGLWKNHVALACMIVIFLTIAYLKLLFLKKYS

[4] = target: ATP-dependent translocase ABCB1 (Homo sapiens, UniProt P08183); assay: Activity at MDR1 (unknown origin) expressed in MDCK cells using calcein AM as substrate incubated for 30 mins prior to substrate addition measured after 30 mins by fluorometric analysis; format: cell-based
MDR1 (ABCB1, P-gp) [5] = target: T1, MDR1 (ABCB1, P-gp); assay: Ratio of MC90 EC50 to compound EC50 for MDR1 (unknown origin) by fluorometric analysis; settings: not told, read-out: Ratio EC50
[6] = Efflux ratio of apparent permeability from basolateral to apical to apical to basolateral side of human Caco2 cells after 120 mins; format: ADME, cell-based; settings: Caco-2

T1 sequence (P08183 whole entry): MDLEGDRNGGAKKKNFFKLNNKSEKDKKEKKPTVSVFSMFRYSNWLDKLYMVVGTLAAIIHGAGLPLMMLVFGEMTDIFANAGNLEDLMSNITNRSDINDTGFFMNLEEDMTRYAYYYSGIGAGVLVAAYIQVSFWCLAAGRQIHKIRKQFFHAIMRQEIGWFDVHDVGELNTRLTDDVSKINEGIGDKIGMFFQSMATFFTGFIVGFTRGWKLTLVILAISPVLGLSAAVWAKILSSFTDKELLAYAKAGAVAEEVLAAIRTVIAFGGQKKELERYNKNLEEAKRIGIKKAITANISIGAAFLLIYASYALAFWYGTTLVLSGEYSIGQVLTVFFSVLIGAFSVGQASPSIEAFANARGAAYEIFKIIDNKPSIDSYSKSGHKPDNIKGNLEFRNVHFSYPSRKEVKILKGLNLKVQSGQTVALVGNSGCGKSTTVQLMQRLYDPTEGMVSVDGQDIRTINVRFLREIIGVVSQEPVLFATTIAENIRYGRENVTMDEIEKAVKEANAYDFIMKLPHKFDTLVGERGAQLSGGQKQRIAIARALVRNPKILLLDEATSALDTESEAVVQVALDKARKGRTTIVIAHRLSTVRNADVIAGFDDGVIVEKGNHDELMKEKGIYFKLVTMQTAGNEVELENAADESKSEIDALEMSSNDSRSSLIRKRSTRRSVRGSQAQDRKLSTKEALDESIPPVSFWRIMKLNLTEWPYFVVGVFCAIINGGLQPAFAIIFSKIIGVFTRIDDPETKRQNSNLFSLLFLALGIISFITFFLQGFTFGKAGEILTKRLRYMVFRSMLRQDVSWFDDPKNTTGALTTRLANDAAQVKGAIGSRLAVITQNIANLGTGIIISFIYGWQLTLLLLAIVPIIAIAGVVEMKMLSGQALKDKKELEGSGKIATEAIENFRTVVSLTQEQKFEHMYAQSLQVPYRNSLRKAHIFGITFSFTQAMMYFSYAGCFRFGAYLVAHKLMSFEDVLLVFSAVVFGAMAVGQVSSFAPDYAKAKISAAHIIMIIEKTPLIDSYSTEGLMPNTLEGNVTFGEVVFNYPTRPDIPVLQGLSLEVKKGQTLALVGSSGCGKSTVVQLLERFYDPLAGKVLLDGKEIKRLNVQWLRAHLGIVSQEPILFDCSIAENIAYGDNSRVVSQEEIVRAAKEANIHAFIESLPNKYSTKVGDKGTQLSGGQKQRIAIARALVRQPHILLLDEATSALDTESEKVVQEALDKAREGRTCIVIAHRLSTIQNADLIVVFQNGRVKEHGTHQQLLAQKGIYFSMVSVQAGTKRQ
ATP-dependent translocase ABCB1, sequence (P08183 whole entry): as above
Multidrug resistance-associated protein 1, sequence (P33527 whole entry): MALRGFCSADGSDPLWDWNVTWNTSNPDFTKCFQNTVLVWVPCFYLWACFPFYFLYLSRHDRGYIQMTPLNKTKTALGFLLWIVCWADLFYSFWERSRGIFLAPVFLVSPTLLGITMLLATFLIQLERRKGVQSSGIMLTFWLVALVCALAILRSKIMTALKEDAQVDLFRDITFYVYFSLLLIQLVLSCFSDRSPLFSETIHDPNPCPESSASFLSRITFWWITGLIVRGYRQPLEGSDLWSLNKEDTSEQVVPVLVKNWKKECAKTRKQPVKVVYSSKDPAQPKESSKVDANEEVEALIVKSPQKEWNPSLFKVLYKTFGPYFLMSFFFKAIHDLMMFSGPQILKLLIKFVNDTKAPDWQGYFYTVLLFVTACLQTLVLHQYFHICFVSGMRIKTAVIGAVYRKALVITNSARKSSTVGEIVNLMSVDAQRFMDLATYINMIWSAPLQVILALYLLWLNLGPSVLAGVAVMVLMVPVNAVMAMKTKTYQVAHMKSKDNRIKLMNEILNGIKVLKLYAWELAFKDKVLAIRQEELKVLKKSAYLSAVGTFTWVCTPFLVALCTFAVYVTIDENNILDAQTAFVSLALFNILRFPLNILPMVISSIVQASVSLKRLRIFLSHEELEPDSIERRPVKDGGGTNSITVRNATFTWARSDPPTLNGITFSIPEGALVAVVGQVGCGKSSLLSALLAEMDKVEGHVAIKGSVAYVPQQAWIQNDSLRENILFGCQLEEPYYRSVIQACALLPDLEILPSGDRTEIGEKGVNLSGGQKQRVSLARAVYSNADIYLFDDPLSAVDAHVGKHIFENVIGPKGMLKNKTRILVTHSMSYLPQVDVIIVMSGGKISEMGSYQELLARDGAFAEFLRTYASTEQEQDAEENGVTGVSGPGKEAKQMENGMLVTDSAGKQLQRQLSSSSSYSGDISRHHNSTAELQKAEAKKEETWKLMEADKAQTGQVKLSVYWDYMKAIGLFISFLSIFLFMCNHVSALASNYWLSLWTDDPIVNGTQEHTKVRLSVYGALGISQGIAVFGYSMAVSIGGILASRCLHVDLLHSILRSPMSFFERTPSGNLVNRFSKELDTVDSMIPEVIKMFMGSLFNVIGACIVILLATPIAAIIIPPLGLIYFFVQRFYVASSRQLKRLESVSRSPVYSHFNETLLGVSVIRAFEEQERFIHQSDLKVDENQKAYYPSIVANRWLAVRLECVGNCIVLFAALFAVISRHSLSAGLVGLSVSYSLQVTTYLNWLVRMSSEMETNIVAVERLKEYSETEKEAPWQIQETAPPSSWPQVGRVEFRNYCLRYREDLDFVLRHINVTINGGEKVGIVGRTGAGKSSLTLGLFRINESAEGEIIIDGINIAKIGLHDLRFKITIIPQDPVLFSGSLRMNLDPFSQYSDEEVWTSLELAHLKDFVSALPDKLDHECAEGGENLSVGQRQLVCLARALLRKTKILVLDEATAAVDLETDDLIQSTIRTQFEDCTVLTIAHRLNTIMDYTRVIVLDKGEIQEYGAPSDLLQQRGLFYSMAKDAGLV

Structure (SMILES)	EC50 [1] [µM]	activity at 2 h, 50 µM (MDR1 (ABCB1, P-gp) [2]) [%]	EC50 [3] [µM]	EC50 [4] [µM]	selectivity ratio (MDR1 (ABCB1, P-gp) [5])	efflux ratio at 2 h [6]
COc1cc2c(cc1OC)CN(Cc1ccc(Oc3ccc(-c4nc(-c5ccc(F)cc5)cs4)cn3)cc1)CC2	> 100	18	1	0.41	10	4.5
COc1cc2c(cc1OC)CN(Cc1ccc(Oc3ccc(C(N)=O)cn3)cc1)CC2	> 100	–	–	19	–	–
COc1ccc(-c2ccc(CN3CCc4cc(OC)c(OC)cc4C3)cc2)cc1	21	–	15	0.6	–	2.6
COc1cccc(-c2csc(-c3ccc(Oc4ccc(CN5CCc6cc(OC)c(OC)cc6C5)cc4)nc3)n2)c1	> 100	20	0.5	0.95	10	2.5
COc1cc2c(cc1OC)CN(Cc1ccc(Oc3ccc(-c4nc(-c5cccc(O)c5)cs4)cn3)cc1)CC2	> 100	20	0.018	0.25	10	0.9
COc1ccc(-c2nc(CN3CCc4cc(OC)c(OC)cc4C3)cs2)cc1	2.7	–	30	1.94	–	6.1
COc1cc2c(cc1OC)CN(CC/C=C1\CCCc3c(OC)cccc31)CC2	–	–	90	–	–	1.64
COc1cc2c(cc1OC)CN(Cc1ccc(Oc3ccc(-c4nc(-c5ccc([N+](=O)[O-])cc5)cs4)cn3)cc1)CC2	> 100	16	10	0.51	10	2.7
COc1cc2c(cc1OC)CN(Cc1ccc(Oc3ccc(C(N)=S)cn3)cc1)CC2	> 100	–	–	11	–	–
COc1cc2c(cc1OC)CN(CCc1ccc(NC(=O)c3cc(OC)c(OC)cc3NC(=O)c3cnc4ccccc4c3)cc1)CC2 [TARIQUIDAR]	–	30	–	–	–	22
